Structures can show the parent of a compound that is named as a salt.
Legend:
[1] = tested on: eyes of patients suffering from severe night vision difficulty; assay: Example 1 clinical study: eye redness, CCLRU Redness Grading Scale regraded 0, 0.5, 1, 2, 3; format: in vivo, humans
From the text: Sixty patients with normal day vision (i.e., 20/40 or better) but which suffer from severe night vision difficulty were enrolled in the study. During the first period of the study, patients were randomized into three groups. The groups received either placebo, 0.5% (w/v) phentolamine mesylate, or 1.0% (w/v) phentolamine mesylate once daily for 15 days. […] During the second period of the study, all sixty patients were instructed to administer an ophthalmic solution of phentolamine mesylate (1% (w/v)) as needed, but no more than once daily to each eye. The ophthalmic solution of phentolamine mesylate contained: 1% (w/v) phentolamine mesylate, 4% (w/v) mannitol, 3 mM sodium acetate, and water. The placebo was a solution containing 4% (w/v) mannitol, 3 mM sodium acetate, and water.
Patients were to meet with a clinician for evaluation on study days 1, 4, 8, 15, and a post-dosing follow-up evaluation three or more days after administering the last dose in the second period. […]

[2] = tested on: eyes of patients with pupil size in dim light of greater than 7 mm; assay: Example 2 clinical study: monocular high contrast visual acuity under photopic conditions (100% tint chart); format: in vivo, humans
Description: Sixteen patients were randomized into four groups (of four subjects each). Each group was treated on three successive study visits separated by at least 4 days with one drop of ophthalmic oxymetazoline solution (Visine LR®) in each eye followed by one drop test article in each eye. The test article was a 0.2% (w/v) phentolamine mesylate solution, 0.4% (w/v) phentolamine mesylate solution, 0.8% (w/v) phentolamine mesylate solution, or placebo. Test articles contained the designed amount of phentolamine mesylate in a solution of Tears Naturale II® (from Alcon Labs). Placebo was just Tears Naturale II® (from Alcon Labs). Tears Naturale II® (from Alcon Labs) contains Dextran 70 (0.1% by weight), Hydroxypropyl Methylcellulose 2910 (0.3% by weight), Polyquarternium-1 (0.001% by weight), potassium chloride, water (purified), sodium borate, sodium chloride, and hydrochloric acid and/or sodium hydroxide as necessary to adjust the pH. The patients' eye redness and pupil diameters were recorded at baseline (i.e., prior to treatment administration), and at 30 minutes, 1 hour, 2 hours, 4 hours, and 8 hours after administration of test articles. The incidence of any treatment-emergent adverse events was also recorded. Total study duration was approximately nine hours.
Eye redness of patients' eyes was evaluated by the research assistant and recorded as a single integer of value 0 (no redness) to 4 (extreme redness) at baseline and each time point after treatment. Pupil diameters were measured to within 0.1 mm for each eye at baseline and each subsequent time point using a NeurOptics™ pupilometer. Monocular high contrast visual acuity was measured for each eye under photopic conditions at baseline and each subsequent time point in a darkened room using a Precision Vision™ High Contrast (100% tint) Visual Acuity Chart (Catalog #2102) backlit by the Precision Vision Illumination Box. Monocular low contrast visual acuity was measured for each eye under photopic conditions at baseline and each subsequent time point in a darkened room using a Precision Vision™ Low Contrast (5% tint) Visual Acuity Chart (Catalog #2186) backlit by the Precision Vision Illumination Box. Effect of treatment on glare was assessed using an experimental test method consisting of a panel with a high wattage central light emitting diode (LED) and a set of 7 lower wattage red LEDs radiating horizontally and vertically from the central light.
Comparisons of changes in mean values within treatment groups were tested for significance using two-tailed paired two sample t-tests with a threshold for significance set at p<0.01 (Bonferroni Correction for multiple paired t-tests). Differences between treatment groups with respect to mean values for pupil size over the course of the study were tested for significance using repeated measure ANOVA (which discards data from subjects lacking any data points). Differences in mean eye redness between treatment groups were evaluated using Kruskal-Wallis nonparametric testing. Differences in means between treatment groups at individual time points were tested for significance using one-way ANOVA.

[3] = 0.2% (w/v) solution, 30 min after treatment
[4] = 0.2% (w/v) solution, 1 hour after treatment
[5] = 0.2% (w/v) solution, 2 hours after treatment
[6] = 0.2% (w/v) solution, 4 hours after treatment
[7] = 0.2% (w/v) solution, 8 hours after treatment
[8] = 0.2% (w/v) solution, Baseline, prior to treatment
[9] = 0.4% (w/v) solution, 30 min after treatment
[10] = 0.4% (w/v) solution, 1 hour after treatment
[11] = 0.4% (w/v) solution, 2 hours after treatment
[12] = 0.4% (w/v) solution, 4 hours after treatment
[13] = 0.4% (w/v) solution, 8 hours after treatment
[14] = 0.4% (w/v) solution, Baseline, prior to treatment
[15] = 0.8% (w/v) solution, 30 min after treatment
[16] = 0.8% (w/v) solution, 1 hour after treatment
[17] = 0.8% (w/v) solution, 2 hours after treatment
[18] = 0.8% (w/v) solution, 4 hours after treatment
[19] = 0.8% (w/v) solution, 8 hours after treatment
[20] = 0.8% (w/v) solution, Baseline, prior to treatment

With `Cc1ccc(N(CC2=NCCN2)c2cccc(O)c2)cc1` [Phentolamine Mesylate, phentolamine mesylate] the eye redness ([1]; immediately after administration (FIG. 5)) was “increases”, the eye redness ([1]; measured prior to administration on days 4, 8, and 15 (FIG. 5)) was “returns to baseline” and the “Maximum high contrast visual acuity” value [2, 3] was 0.22 LogMar. The “Mean high contrast visual acuity” value [2, 3] was 0.05 LogMar, the “Minimum high contrast visual acuity” value [2, 3] was −0.32 LogMar and the “Maximum high contrast visual acuity” value [2, 4] was 0.22 LogMar. The “Mean high contrast visual acuity” value [2, 4] was 0.08 LogMar, the “Minimum high contrast visual acuity” value [2, 4] was −0.20 LogMar and the “Maximum high contrast visual acuity” value [2, 5] was 0.26 LogMar. The “Mean high contrast visual acuity” value [2, 5] was 0.08 LogMar, the “Minimum high contrast visual acuity” value [2, 5] was −0.22 LogMar and the “Maximum high contrast visual acuity” value [2, 6] was 0.22 LogMar. For the same compound, the “Mean high contrast visual acuity” value [2, 6] was 0.09 LogMar, the “Minimum high contrast visual acuity” value [2, 6] was −0.20 LogMar and the “Maximum high contrast visual acuity” value [2, 7] was 0.22 LogMar. The “Mean high contrast visual acuity” value [2, 7] was 0.08 LogMar, the “Minimum high contrast visual acuity” value [2, 7] was −0.32 LogMar and the “Maximum high contrast visual acuity” value [2, 8] was 0.22 LogMar. The “Mean high contrast visual acuity” value [2, 8] was 0.04 LogMar, the “Minimum high contrast visual acuity” value [2, 8] was −0.32 LogMar and the “Maximum high contrast visual acuity” value [2, 9] was 0.22 LogMar. For the same compound, the “Mean high contrast visual acuity” value [2, 9] was 0.12 LogMar, the “Minimum high contrast visual acuity” value [2, 9] was −0.20 LogMar and the “Maximum high contrast visual acuity” value [2, 10] was 0.26 LogMar. The “Mean high contrast visual acuity” value [2, 10] was 0.11 LogMar, the “Minimum high contrast visual acuity” value [2, 10] was −0.20 LogMar and the “Maximum high contrast visual acuity” value [2, 11] was 0.30 LogMar. For the same compound, the “Mean high contrast visual acuity” value [2, 11] was 0.14 LogMar, the “Minimum high contrast visual acuity” value [2, 11] was −0.10 LogMar and the “Maximum high contrast visual acuity” value [2, 12] was 0.30 LogMar. The “Mean high contrast visual acuity” value [2, 12] was 0.15 LogMar, the “Minimum high contrast visual acuity” value [2, 12] was −0.11 LogMar and the “Maximum high contrast visual acuity” value [2, 13] was 0.30 LogMar. For the same compound, the “Mean high contrast visual acuity” value [2, 13] was 0.13 LogMar, the “Minimum high contrast visual acuity” value [2, 13] was −0.18 LogMar and the “Maximum high contrast visual acuity” value [2, 14] was 0.22 LogMar. The “Mean high contrast visual acuity” value [2, 14] was 0.09 LogMar, the “Minimum high contrast visual acuity” value [2, 14] was −0.24 LogMar and the “Maximum high contrast visual acuity” value [2, 15] was 0.22 LogMar. The “Mean high contrast visual acuity” value [2, 15] was 0.11 LogMar, the “Minimum high contrast visual acuity” value [2, 15] was −0.16 LogMar and the “Maximum high contrast visual acuity” value [2, 16] was 0.26 LogMar. The “Mean high contrast visual acuity” value [2, 16] was 0.12 LogMar, the “Minimum high contrast visual acuity” value [2, 16] was −0.10 LogMar and the “Maximum high contrast visual acuity” value [2, 17] was 0.30 LogMar. For the same compound, the “Mean high contrast visual acuity” value [2, 17] was 0.12 LogMar, the “Minimum high contrast visual acuity” value [2, 17] was −0.16 LogMar and the “Maximum high contrast visual acuity” value [2, 18] was 0.30 LogMar. The “Mean high contrast visual acuity” value [2, 18] was 0.12 LogMar, the “Minimum high contrast visual acuity” value [2, 18] was −0.20 LogMar and the “Maximum high contrast visual acuity” value [2, 19] was 0.30 LogMar. The “Mean high contrast visual acuity” value [2, 19] was 0.13 LogMar, the “Minimum high contrast visual acuity” value [2, 19] was −0.20 LogMar and the “Maximum high contrast visual acuity” value [2, 20] was 0.22 LogMar. For the same compound, the “Mean high contrast visual acuity” value [2, 20] was 0.06 LogMar, the “Minimum high contrast visual acuity” value [2, 20] was −0.41 LogMar and the “maximal mean increase in high contrast visual acuity” value ([2]; 0.8%, at 4 and 8 hours) was 0.06 Log Mar. For the same compound, the “improvement in high contrast vision” value ([2]; 0.8%, at 4 and 8 hours, equivalent of the maximal mean increase) was ~3 letters on a Snellen chart.

Source: patent US11000509B2, “Methods and compositions for daily ophthalmic administration of phentolamine to improve visual performance” (Ocuphire Pharma, Inc., priority 2013, dated 2021)
